Consider three compounds from patent US11499981B2, “Methods of identifying modulators of SAMTOR-GATOR1 interaction and use of same to modulate mTORC1” (Whitehead Institute for Biomedical Research, priority 2017, dated 2022).

The target of test [1] is T1, human FLAG-SAMTOR (Homo sapiens, UniProt Q1RMZ1).
T1 construct: made in house; host or cells: HEK-293F suspension cells, transient transfection; anti-FLAG IP, FLAG-peptide elution, size-exclusion chromatography
T1 sequence (Q1RMZ1 1-405): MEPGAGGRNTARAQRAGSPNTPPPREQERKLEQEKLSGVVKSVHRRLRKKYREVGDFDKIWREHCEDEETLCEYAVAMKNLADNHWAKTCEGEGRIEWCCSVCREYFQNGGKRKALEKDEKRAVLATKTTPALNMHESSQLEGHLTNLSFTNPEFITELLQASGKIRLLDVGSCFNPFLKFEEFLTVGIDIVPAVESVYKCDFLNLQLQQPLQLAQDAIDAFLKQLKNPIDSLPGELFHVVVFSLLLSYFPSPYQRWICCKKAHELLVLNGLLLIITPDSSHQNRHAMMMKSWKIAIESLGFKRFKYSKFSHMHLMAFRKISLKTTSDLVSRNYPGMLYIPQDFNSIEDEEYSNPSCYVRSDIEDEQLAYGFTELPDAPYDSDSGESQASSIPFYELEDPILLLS
Put plainly: Equilibrium [3H]SAM binding assay and competition binding assay with purified FLAG-SAMTOR. On the procedure:
For radiolabelled SAM binding assays using FLAG-tagged wild-type SAMTOR (FIG. 3B), suspension HEK-293F cells were seeded at 2.5 million cells/ml, and the pRK5-FLAG-SAMTOR cDNA was transfected using polyethylenimine. 72-96 hours after transfection, cells were rinsed one time in cold PBS and lysed in 1% Triton lysis buffer (1% Triton, 40 mM Hepes pH 7.4, 2.5 mM MgCl2 and 1 tablet of EDTA-free protease inhibitor [Roche] per 25 ml buffer). Following anti-FLAG immunoprecipitation, the beads were washed 4 times with lysis buffer containing 500 mM NaCl and the protein was eluted in FLAG Elution Buffer (40 mM Hepes pH 7.4, 150 mM NaCl, 2.5 mM MgCl2 and 0.5 mg/ml FLAG peptide) for 1 hour at 4° C. […] Each sample was mixed well and then 15 μl aliquots were separately quantified using a TriCarb scintillation counter (Perkin Elmer). This process was repeated in pairs for each sample, to ensure similar incubation and wash times for all samples analyzed across different experiments. The affinities for SAM and SAH of human FLAG-SAMTOR were determined by first normalizing the bound [^3H]-labeled SAM concentrations across three separate binding assays performed with varying amounts of cold SAM or SAH. […]

Test [2] deals with T2, SAMTOR-GATOR1-KICSTOR complex (Homo sapiens, UniProt Q1RMZ1).
T2 construct: FLAG-immunoprecipitates were prepared from the endogenously FLAG-tagged Depdc5 HEK-293T cells; endogenous in cells; host or cells: HEK-293T cells with endogenously FLAG-tagged Depdc5; anti-FLAG immunoprecipitate on beads
T2 sequence (Q1RMZ1 1-405): T1 sequence (Q1RMZ1 1-405)
In words: In vitro GATOR1-SAMTOR dissociation assay (immunopurified complex, immunoblotting). The test is classed as biochemical. Particulars: for disruption of the interaction between SAMTOR and GATOR1 (FIG. 3D): 100 μM, added to FLAG-Depdc5 immunoprecipitates; for disruption of the interaction of SAMTOR with GATOR1-KICSTOR: added directly to the immunopurified complex kept at 4° C. As for the experimental part:
HEK-293T cells stably expressing endogenous FLAG-tagged Depdc5 were lysed and subjected to anti-FLAG immunoprecipitations as described above. The GATOR1-SAMTOR complexes immobilized on the FLAG beads were washed twice in lysis buffer with 250 mM NaCl, and then incubated for 25 minutes in 0.3 ml of cytosolic buffer (0.1% Triton, 40 mM HEPES pH7.4, 10 mM NaCl, 150 mM KCl, 2.5 mM MgCl2) with the indicated concentrations of SAM or SAH in the cold. The amount of GATOR1, SAMTOR, GATOR2, and KICSTOR that remained bound was assayed by SDS-PAGE and immunoblotting as described previously.
In general terms: A western blot detects proteins with antibodies after separation by electrophoresis.

Test [3] deals with T3, human FLAG-SAMTOR (SAMTOR, C7orf60; wild-type, FLAG-tagged, expressed in HEK-293F cells) (Homo sapiens, UniProt Q1RMZ1).
T3 construct: made in house; host or cells: HEK-293F (suspension), transient transfection of pRK5-FLAG-SAMTOR; anti-FLAG purification and size-exclusion chromatography
T3 sequence (Q1RMZ1 1-405): T1 sequence (Q1RMZ1 1-405)
Put plainly: Radiolabelled SAM binding assay: competition of unlabeled SAH with [3H]SAM for purified FLAG-SAMTOR (FIG. 3B). To be noted: 5 μM [3H]SAM competed with unlabeled SAH; 5 μg purified wild-type FLAG-SAMTOR on anti-FLAG beads, 1 h on ice, pH 7.4; Ki=IC50/(1+([3H]SAM)/Kd). The source says:
FIGS. 3A-3G depict S-adenosylmethionine binds SAMTOR to disrupt its interaction with GATOR1 and KICSTOR. FIG. 3A provides a schematic of the human SAMTOR protein indicating the Class I Rossmann fold methyltransferase domain. Shown is an alignment of partial sequences of this domain from SAMTOR in indicated species. Amino acid positions are colored from white to blue in order of increasing sequence similarity. Orange dots denote the G172 and D190 residues of human SAMTOR. […] FLAG-SAMTOR protein prepared from HEK-293F cells transiently expressing the FLAG-SAMTOR cDNA was further purified by size-exclusion chromatography. The protein was analyzed by SDS-PAGE followed by Coomassie blue staining. Binding assays were performed with purified FLAG-SAMTOR incubated with 5 μM [^3H]SAM and indicated concentrations of unlabeled SAM or SAH. Values for each point are mean±SD of three technical replicates from one representative experiment. The experiment was performed twice. […] FLAG-immunoprecipitates and cell lysates were analyzed by immunoblotting for the levels of the indicated proteins. […] The experiment was performed and analyzed as in (FIG. 3C). […] HA-immunoprecipitates and cell lysates were analyzed as (FIG. 3C). […] FLAG-immunoprecipitates and cell lysates were analyzed by immunoblotting for the phosphorylation states and levels of the indicated proteins. […]

The test system of test [4] is mTORC1. Put plainly: mTORC1 signaling in methionine-starved cells (immunoblotting of mTORC1 substrate phosphorylation). The test is classed as cell-based, human. Particulars: for activation of mTORC1 after loss of MAT2A: MAT2A dox-off HEK-293T cells, 30 ng/mL doxycycline for 50 hours.
Method: Cell volumes were determined by Coulter counter and used to calculate whole cell concentrations. […] HA-immunoprecipitates and cell lysates were analyzed by immunoblotting for the levels of the indicated proteins. […] Cell lysates were analyzed by immunoblotting for the phosphorylation states and the levels of the indicated proteins. […] Wild-type or SAMTOR-deficient HEK-293T cells were starved for the indicated amino acid for 2 hours. Cell lysates were analyzed by immunoblotting for the phosphorylation states and the levels of the indicated proteins. […] SAMTOR-deficient or control HEK-293T cells were treated as indicated for 2 hours prior to processing for immunofluorescence detection of mTOR and the lysosomal marker LAMP2. In all images, insets represent selected fields magnified 3.07× as well as their overlays. Scale bar represents 10 μm. […] SAMTOR-null cells were co-transfected with a cDNA for FLAG-S6K1 along with the indicated HA-tagged cDNAs and cells were treated as in (FIG. 4C) prior to preparing lysates and FLAG-immunoprecipitates. FLAG-immunoprecipitates and cell lysates were analyzed by immunoblotting for the phosphorylation states and the levels of the indicated proteins. […] S2R+ cells were transfected with dsRNAs targeting the indicated mRNAs and starved for 1 hour for the indicated amino acid. Cell lysates were analyzed by immunoblotting for the phosphorylation states and the levels of the indicated proteins. […] MAT2A dox-off HEK-293T cells were treated with 30 ng/mL doxycycline for 50 hours prior to starving them as in (FIG. 4C). Cell lysates were analyzed by immunoblotting for the phosphorylation states and the levels of the indicated proteins.
Cells were rinsed with cold PBS and lysed in lysis buffer (1% Triton, 10 mM β-glycerol phosphate, 10 mM pyrophosphate, 40 mM Hepes pH 7.4, 2.5 mM MgCl2 and 1 tablet of EDTA-free protease inhibitor [Roche] (per 25 ml buffer)). […] Cell lysate samples were prepared by addition of 5× sample buffer (0.242 M Tris, 10% SDS, 25% glycerol, 0.5 M DTT, and bromophenol blue), resolved by 8%-16% SDS-PAGE, and analyzed by immunoblotting.
Test [5] concerns the target T4, SAMTOR-GATOR1-KICSTOR interaction in HEK-293T cells (Homo sapiens, UniProt Q1RMZ1).
T4 construct: expressed in transfected cells; host or cells: HEK-293T cells transiently transfected with HA-SAMTOR in pRK5 (25 ng)
T4 sequence (Q1RMZ1 1-405): T1 sequence (Q1RMZ1 1-405)
Put plainly: Co-immunoprecipitation of GATOR1 with HA-SAMTOR from methionine-starved and restimulated cells. The test is classed as cell-based. To be noted: HEK-293T starved of methionine 2 hours.
Method: Cell volumes were determined by Coulter counter and used to calculate whole cell concentrations. […] HA-immunoprecipitates and cell lysates were analyzed by immunoblotting for the levels of the indicated proteins. […] Cell lysates were analyzed by immunoblotting for the phosphorylation states and the levels of the indicated proteins. […] Wild-type or SAMTOR-deficient HEK-293T cells were starved for the indicated amino acid for 2 hours. Cell lysates were analyzed by immunoblotting for the phosphorylation states and the levels of the indicated proteins. […] SAMTOR-deficient or control HEK-293T cells were treated as indicated for 2 hours prior to processing for immunofluorescence detection of mTOR and the lysosomal marker LAMP2. […] FLAG-immunoprecipitates and cell lysates were analyzed by immunoblotting for the phosphorylation states and the levels of the indicated proteins. […] Cell lysates were analyzed by immunoblotting for the phosphorylation states and the levels of the indicated proteins. […] Cell lysates were analyzed by immunoblotting for the phosphorylation states and the levels of the indicated proteins.
For anti-FLAG immunoprecipitations, anti-FLAG M2 Affinity Gel (SIGMA A2220) was washed with lysis buffer three times then resuspended to a ratio of 50:50 affinity gel to lysis buffer. […] Denatured samples were resolved by 8%-12% SDS-PAGE, and analyzed by immunoblotting.

In general, Ki refers to the equilibrium dissociation constant of an inhibitor or competing ligand from its target. Low readings indicate a stronger hold on the target, high ones a looser hold on the target. For the compound `Nc1ncnc2c1ncn2[C@@H]1O[C@H](CSCC[C@H](N)C(=O)O)[C@@H](O)[C@H]1O` [SAH, S-adenosylhomocysteine], the “binding to SAMTOR in competition binding assay” value in test [1] (5 μM [3H]SAM with unlabeled competitor) was “can also bind”. Further, in test [2], the “disruption of the interaction between SAMTOR and GATOR1 (FIG. 3D)” value was “disrupt the interaction”; the “disruption of the interaction of SAMTOR with GATOR1-KICSTOR” value is “disrupted the interaction”. Further, in test [3], the Ki is ~4.6 µM.
With `C[S+](CC[C@H](N)C(=O)[O-])C[C@H]1O[C@@H](n2cnc3c(N)ncnc32)[C@H](O)[C@@H]1O` (stereo partly drawn) [SAM, S-adenosylmethionine], the Kd in test [1] (5 μM [3H]SAM with unlabeled SAM, read-out: dissociation constant of SAM for SAMTOR) is ~7 µM. Further, in test [4], the “activation of mTORC1 after loss of MAT2A” value was “largely intact”. For the same compound, in test [4] (methionine-starved HEK-293T cells (FIG. 4H)), the “mTORC1 signaling after addition to methionine-starved cells” value is listed as “reactivated mTORC1 signaling”. In test [2], the “disruption of the interaction between SAMTOR and GATOR1 (FIG. 3D)” value is “disrupt the interaction”; the “disruption of the interaction of SAMTOR with GATOR1-KICSTOR” value is reported as “disrupted the interaction”. The “SAMTOR-GATOR1-KICSTOR interaction in cells after re-addition” value in test [5] (restimulated 20 minutes with 1 mM SAM) is on record as “reduced the interaction to baseline levels”.
Take `CSCC[C@H](N)C(=O)O` [methionine]: the “activation of mTORC1 after loss of MAT2A” value in test [4] is on record as “greatly attenuated”. In addition, in test [5] (restimulated 20 minutes with 100 μM methionine), the “SAMTOR-GATOR1-KICSTOR interaction in cells after re-addition” value is “reduced the interaction to baseline levels”.
